According to patent US20230399332A1, “IMIDAZO[1,2-a]PYRAZINE OR PYRAZOLO[1,5-a]PYRIMIDINE DERIVATIVE AND USE THEREOF” (TENCENT TECHNOLOGY (SHENZHEN) COMPANY LIMITED, priority 2022, published 2023):
pIC50: −log10 of the molar value. Where two headings read alike, the source gives them in different places. Each block holds one molecule with its values, some of them ahead of it.

How the values were obtained:
hERG = hERG (Homo sapiens (Human), UniProt Q12809); assay: hERG inhibitory activity, whole cell patch clamp in CHO hERG cells; format: cell-based; settings: for inhibition at 10 µM: human, CHO cells that express hERG, read-out: hERG inhibitory rate
Chain of hERG (Q12809 whole entry): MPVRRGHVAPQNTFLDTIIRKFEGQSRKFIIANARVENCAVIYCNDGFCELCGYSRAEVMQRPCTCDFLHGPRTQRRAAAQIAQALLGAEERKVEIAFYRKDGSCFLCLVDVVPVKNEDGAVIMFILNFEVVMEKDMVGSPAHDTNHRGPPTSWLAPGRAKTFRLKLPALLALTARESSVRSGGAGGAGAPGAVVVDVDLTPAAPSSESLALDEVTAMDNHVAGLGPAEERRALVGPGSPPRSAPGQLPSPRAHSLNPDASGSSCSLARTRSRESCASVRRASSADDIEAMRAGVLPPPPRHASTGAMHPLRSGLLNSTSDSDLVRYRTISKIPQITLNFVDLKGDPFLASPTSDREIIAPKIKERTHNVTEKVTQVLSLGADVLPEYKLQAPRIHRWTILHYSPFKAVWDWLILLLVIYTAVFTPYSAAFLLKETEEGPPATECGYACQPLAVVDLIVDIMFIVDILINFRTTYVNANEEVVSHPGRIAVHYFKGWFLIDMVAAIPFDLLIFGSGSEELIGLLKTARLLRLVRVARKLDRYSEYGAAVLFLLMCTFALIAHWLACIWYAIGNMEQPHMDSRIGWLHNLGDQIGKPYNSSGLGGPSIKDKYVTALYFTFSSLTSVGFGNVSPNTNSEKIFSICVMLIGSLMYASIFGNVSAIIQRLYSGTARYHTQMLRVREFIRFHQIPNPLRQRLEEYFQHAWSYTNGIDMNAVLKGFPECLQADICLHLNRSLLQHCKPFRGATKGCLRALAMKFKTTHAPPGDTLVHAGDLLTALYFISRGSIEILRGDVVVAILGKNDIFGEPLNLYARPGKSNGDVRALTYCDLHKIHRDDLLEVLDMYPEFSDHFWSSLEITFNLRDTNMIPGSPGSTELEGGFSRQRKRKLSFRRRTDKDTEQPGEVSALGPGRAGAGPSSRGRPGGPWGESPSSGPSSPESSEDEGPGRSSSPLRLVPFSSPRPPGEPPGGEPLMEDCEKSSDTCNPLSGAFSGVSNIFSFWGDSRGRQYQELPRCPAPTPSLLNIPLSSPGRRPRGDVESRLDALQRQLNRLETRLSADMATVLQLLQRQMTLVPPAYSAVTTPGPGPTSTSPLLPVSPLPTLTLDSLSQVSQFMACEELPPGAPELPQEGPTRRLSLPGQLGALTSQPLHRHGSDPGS
Method: This experiment was carried out to test the in vitro inhibitory activity of the compounds of the present disclosure against hERG.
In this method, whole cell recording was conducted by using a HEKA EPC 10 USB patch clamp amplifier (HEKA Elektronik, Germany). A cover slide with a large number of individual CHO hERG cells on the surface was removed and placed in a recording tank which was treated with continuous perfusion (about 1 ml/min) and loaded into an inverted microscope. Currents of hERG channels of the individual cells were recorded by using a standard whole cell recording method. A fixed voltage of −80 mV was applied to the cells by a voltage clamp. The hERG currents were activated by depolarization at +20 mV for 5 s, and then the currents were changed back at −50 mV for 5 s to remove a passivation effect and observe deactivated tail currents. Potassium ion tail currents observed in the hERG channels were stabilized by continuous perfusion in this step. Then, the cells were treated with a drug of the present disclosure until a stable state was reached. A stable state was considered as being reached when three consecutive superimposed currents were recorded. At this time point, the cells were treated again with an extracellular solvent until the current amplitude was changed back to near the level before administration. Cisapride was used in a control experiment to verify that the mass and response of hERG cells were in a normal state.

LSD1 = LSD1 (Homo sapiens (Human), UniProt O60341); assay: LSD1 inhibitory activity on an enzyme level, AlphaScreen method; format: biochemical; settings: in vitro
Method: This experiment was carried out to test the in vitro inhibitory activity of the compounds of the present disclosure against LSD1.
Experimental steps and a method: In this experiment, the in vitro inhibitory activity of the compounds of the present disclosure against LSD1 on an enzyme level was tested by using an AlphaScreen method. The experimental steps are described as follows: • a) preparation of a 1× buffer: • preparing a 1× buffer (improved trihydroxymethylaminomethane buffer); • b) continuous dilution of the compounds: • transferring the compounds of the present disclosure to a porous plate by using Echo at a final DMSO concentration of 1%; • c) preparation of an enzyme solution: • preparing an enzyme solution in the 1× buffer; • d) preparation of a substrate solution: • adding polypeptide to the 1× buffer to prepare a substrate solution; • e) transferring 5 μL of the enzyme solution or the 1× buffer to the porous plate; • f) conducting incubation at room temperature for 15 min; • g) adding 5 μL of the substrate solution to each well to induce a reaction; • h) conducting incubation at room temperature for 40 min; • i) preparing a 1× Alphalisa buffer; • j) preparation of a 1× Alphalisa buffer solution of receptors and donors: • adding 15 μL of a receptor and donor solution in dark light environment, and conducting incubation at room temperature for 60 min; • k) reading an endpoint in an EnSpire Alpha mode; and • l) data processing: • calculating an inhibitory value according to an equation 1:
Inh %=(Max−Signal)/(Max−Min)*100; and equation 1: • calculating an IC50 value by using XL-Fit according to an equation 2:
Y=Bottom+(Top-Bottom)/(1+(IC50/X)[…]), equation 2: • where Y indicates the inhibitory rate, and X indicates the concentration of a compound.

[1] = Pharmacokinetics after intravenous injection or oral administration in mice; format: in vivo; settings: mouse, plasma, CD-1 mice, 5 mg/kg; for AUC(0-t): read-out: Curve area AUC0-t; for half-life: read-out: Half-life T1/2 (converted)
Method: This experiment was carried out to test pharmacokinetic properties of the compounds of the present disclosure in mice.
A tested compound was dissolved in a mixture of 10% DMSO, 10% Solutol HS15 and 80% normal saline, and subjected to vortex treatment and ultrasonic treatment to obtain a corresponding concentration of a clarified solution. Then, the clarified solution was filtered with a microporous filter membrane for later use. A resulting tested compound solution was injected intravenously to CD-1 mice with a body weight of 21 to 27 g at a dose of 5 mg/kg. A tested compound was dissolved in a mixture of 10% DMSO, 10% Solutol HS15 and 80% normal saline, and subjected to vortex treatment and ultrasonic treatment to obtain a corresponding concentration of a clarified solution. Then, the clarified solution was filtered with a microporous filter membrane for later use. A resulting tested compound solution was administered orally to CD-1 mice with a body weight of 21 to 27 g at a dose of 5 mg/kg. Whole blood was collected at certain time points, and plasma was prepared. Drug concentration was analyzed by an LC-MS/MS method, and pharmacokinetic parameters were calculated by Phoenix WinNonlin software.

Compound: CC(C)(O)Cn1nnc2cc(-c3c(-c4ccc(C#N)c(F)c4)nc4c(N5CCC[C@@H](N)C5)nccn34)c(F)cc21 [Compound 18, (R)-4-(8-(3-aminopiperidin-1-yl)-3-(6-fluoro-1-(2-hydroxy-2-methylpropyl)-1H-benzo[d][1,2,3]triazol-5-yl)imidazo[1,2-a]pyrazin-2-yl)-2-fluorobenzonitrile]
hERG inhibitory rate (hERG; 10 μM): 43.72%

pIC50 (LSD1): 8.80
Compound: CC(C)(O)Cn1nnc2cc(-c3c(-c4ccc(C#N)c(F)c4)nc4c(N5CCC[C@@H](N)C5)nccn34)c(F)cc21 [Compound 12, (R)-4-(8-(3-aminopiperidin-1-yl)-3-(6-fluoro-1-(2-hydroxy-2-methylpropyl)-1H-benzo[d][1,2,3]triazol-5-yl)imidazo[1,2-a]pyrazin-2-yl)-2-fluorobenzonitrile]
inhibition at 10 µM (hERG): 27%

pIC50 (LSD1): 8.59
Compound: CC(C)(O)Cn1nnc2cc(-c3c(-c4ccc(C#N)c(F)c4)nc4c(N5CCC[C@@H](N)C5)nccn34)ccc21 [Compound 20, (R)-4-(8-(3-aminopiperidin-1-yl)-3-(1-(2-hydroxy-2-methylpropyl)-1H-benzo[d][1,2,3]triazol-5-yl)imidazo[1,2-a]pyrazin-2-yl)-2-fluorobenzonitrile]
inhibition at 10 µM (hERG): 26.7%

Compound: CC(C)(O)Cn1nnc2cc(-c3c(-c4ccc(C#N)c(F)c4)nc4c(N5[C@@H]6CC[C@H]5[C@@H](N)C6)nccn34)c(F)cc21 [Compound 27, 4-(8-((1S,2S,4R)-2-amino-7-azabicyclo[2.2.1]heptane-7-yl)-3-(6-fluoro-1-(2-hydroxy-2-methylpropyl)-1H-benzo[d][1,2,3]triazol-5-yl)imidazo[1,2-a]pyrazin-2-yl)-2-fluorobenzonitrile]
pIC50 (LSD1): 9.00
Vd ([1]; intravenous injection, read-out: Apparent volume of distribution V): 5.04 L/kg
clearance ([1]; intravenous injection, read-out: Clearance rate CL): 7.25 mL/min/kg
AUC(0-t) ([1]; intravenous injection): 11500 ng·h/mL
half-life ([1]; intravenous injection): 8.33 h
Cmax ([1]; oral administration, read-out: Blood drug concentration Cmax): 648 ng/mL
AUC(0-t) ([1]; oral administration): 6530 ng·h/mL
half-life ([1]; oral administration): 5.86 h

pIC50 (LSD1): 8.89
Compound: COc1ccc(-c2c(-c3ccc(C#N)c(F)c3)nc3c(N4CCC[C@@H](N)C4)nccn23)cc1F [Compound 2, (R)-4-(8-(3-aminopiperidin-1-yl)-3-(3-fluoro-4-methoxyphenyl)imidazo [1,2-a]pyrazin-2-yl)-2-fluorobenzonitrile]
